The values below are quoted from earlier work in patent publication US7973075B2, “Kainate receptor-selective epimeric analogs of dysiherbaine” (priority 2007, dated 2011).

Molecules are shown by their SMILES.

One data set relates to mice. The settings on record: i.c.v. injection, mice; Shoji et al., 2006; cited from earlier work.
A further data set addresses T1, GluR5-2a (Rattus norvegicus, UniProt P22756, DEL402-416).
T1 construct: expressed in transfected cells; host or cells: HEK-293-T/17
The settings on record: Sanders et al., 2005; cited from earlier work.

The target in a further data set is T2, GluR6 (Rattus norvegicus, UniProt P42260).
T2 construct: expressed in transfected cells; HEK 293 (patch clamp)
The settings on record: Tables 1-2; comparison value of neoDH (Sanders et al., 2005); read-out: GluR6 binding affinity (displacement of [3H]kainate); cited from earlier work. (In general: Displacement assays read how much labelled ligand stays bound in the presence of the test substance.)

Data set [1] deals with T3, KA2 (Rattus norvegicus, UniProt Q63273).
T3 construct: expressed in transfected cells; host or cells: HEK-293-T/17
T3 sequence (Q63273 15-979): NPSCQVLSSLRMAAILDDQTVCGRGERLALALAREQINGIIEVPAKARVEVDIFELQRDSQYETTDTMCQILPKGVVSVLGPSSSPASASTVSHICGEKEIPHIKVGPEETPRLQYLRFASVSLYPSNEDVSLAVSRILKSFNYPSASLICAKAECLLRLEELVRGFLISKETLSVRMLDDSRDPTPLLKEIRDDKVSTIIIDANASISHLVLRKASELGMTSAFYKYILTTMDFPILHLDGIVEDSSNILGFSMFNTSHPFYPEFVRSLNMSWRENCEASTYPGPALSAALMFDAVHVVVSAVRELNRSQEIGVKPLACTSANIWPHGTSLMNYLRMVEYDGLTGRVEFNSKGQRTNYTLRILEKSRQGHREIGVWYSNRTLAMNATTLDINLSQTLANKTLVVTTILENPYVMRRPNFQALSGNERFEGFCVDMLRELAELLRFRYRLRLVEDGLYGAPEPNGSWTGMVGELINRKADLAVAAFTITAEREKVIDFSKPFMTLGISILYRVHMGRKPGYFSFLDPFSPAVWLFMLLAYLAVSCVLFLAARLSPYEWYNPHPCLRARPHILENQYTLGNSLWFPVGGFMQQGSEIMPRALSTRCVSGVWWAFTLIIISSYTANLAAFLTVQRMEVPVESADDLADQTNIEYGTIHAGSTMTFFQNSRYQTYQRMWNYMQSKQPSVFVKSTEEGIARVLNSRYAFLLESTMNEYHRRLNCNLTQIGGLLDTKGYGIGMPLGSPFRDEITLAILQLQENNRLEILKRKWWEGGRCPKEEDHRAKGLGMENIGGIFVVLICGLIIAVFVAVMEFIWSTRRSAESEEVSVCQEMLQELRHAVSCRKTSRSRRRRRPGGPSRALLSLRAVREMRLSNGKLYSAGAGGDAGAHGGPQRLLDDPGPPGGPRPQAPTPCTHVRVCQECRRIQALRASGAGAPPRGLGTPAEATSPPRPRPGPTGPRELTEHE
The settings on record: Sanders et al., 2005; cited from earlier work.

For a further data set, the target named is T4, GluR5 (Rattus norvegicus, UniProt P22756).
T4 construct: expressed in transfected cells; HEK 293 (patch clamp)
The settings on record: Tables 1-2; comparison values of neoDH and MSVIII-19 (Sanders et al., 2005); read-out: GluR5 binding affinity (displacement of [3H]kainate); cited from earlier work.

In data set [2] the target is T3, KA2. The settings on record: Tables 1-2; comparison values of neoDH and MSVIII-19 (Sanders et al., 2005); cited from earlier work.

T2 sequence (P42260 32-908): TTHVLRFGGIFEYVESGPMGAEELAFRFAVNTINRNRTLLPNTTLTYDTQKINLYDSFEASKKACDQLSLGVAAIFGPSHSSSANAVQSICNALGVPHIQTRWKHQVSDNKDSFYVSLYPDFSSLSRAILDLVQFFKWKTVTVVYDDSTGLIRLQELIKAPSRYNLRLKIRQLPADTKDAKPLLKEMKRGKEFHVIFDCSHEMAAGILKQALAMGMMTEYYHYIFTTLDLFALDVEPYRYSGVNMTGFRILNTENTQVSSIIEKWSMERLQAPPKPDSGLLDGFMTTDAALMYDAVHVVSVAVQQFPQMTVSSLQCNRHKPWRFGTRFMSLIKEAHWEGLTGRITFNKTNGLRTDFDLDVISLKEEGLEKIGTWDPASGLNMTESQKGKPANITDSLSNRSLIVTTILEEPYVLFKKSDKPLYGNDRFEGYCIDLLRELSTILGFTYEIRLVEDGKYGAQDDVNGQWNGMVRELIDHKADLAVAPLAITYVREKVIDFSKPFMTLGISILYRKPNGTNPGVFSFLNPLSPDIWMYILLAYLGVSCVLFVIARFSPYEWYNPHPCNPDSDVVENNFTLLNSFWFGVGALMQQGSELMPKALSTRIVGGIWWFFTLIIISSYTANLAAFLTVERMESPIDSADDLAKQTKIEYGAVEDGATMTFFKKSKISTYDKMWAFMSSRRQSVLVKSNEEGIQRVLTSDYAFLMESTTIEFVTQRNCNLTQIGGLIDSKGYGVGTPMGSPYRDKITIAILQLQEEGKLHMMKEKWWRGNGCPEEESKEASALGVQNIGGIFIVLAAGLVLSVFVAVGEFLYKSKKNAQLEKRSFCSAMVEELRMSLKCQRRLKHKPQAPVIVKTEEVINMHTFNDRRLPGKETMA
T1 sequence (P22756 with tags, fused parts or gaps isoform P22756-2 limits assumed, stated change not applied): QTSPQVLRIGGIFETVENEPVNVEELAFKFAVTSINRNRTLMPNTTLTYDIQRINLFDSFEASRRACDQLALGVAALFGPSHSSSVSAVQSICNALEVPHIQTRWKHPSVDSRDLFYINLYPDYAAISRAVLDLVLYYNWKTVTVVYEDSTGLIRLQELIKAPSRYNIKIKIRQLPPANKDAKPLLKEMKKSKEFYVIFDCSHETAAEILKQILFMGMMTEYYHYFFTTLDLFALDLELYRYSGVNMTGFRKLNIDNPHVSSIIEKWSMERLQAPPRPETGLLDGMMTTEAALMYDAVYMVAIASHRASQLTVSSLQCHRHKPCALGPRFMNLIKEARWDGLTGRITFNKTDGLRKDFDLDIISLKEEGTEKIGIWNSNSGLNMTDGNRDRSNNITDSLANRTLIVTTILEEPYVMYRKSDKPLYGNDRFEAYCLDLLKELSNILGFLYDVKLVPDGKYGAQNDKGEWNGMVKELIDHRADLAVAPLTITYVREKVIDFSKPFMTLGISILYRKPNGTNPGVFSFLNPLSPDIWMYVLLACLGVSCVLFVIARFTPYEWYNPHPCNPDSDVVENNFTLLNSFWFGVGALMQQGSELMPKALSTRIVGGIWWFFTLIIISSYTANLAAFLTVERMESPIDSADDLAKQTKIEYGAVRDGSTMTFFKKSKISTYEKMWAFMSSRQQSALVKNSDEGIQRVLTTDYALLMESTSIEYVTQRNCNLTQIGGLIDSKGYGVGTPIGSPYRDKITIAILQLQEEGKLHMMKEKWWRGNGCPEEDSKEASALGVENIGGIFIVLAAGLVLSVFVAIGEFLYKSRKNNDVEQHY
T4 sequence (P22756 with tags, fused parts or gaps isoform P22756-2): as the sequence (P22756 with tags, fused parts or gaps isoform P22756-2 limits assumed, stated change not applied) above

Consider `CN[C@H]1[C@H]2O[C@@](C[C@H](N)C(=O)O)(C(=O)O)C[C@H]2OC[C@H]1O` [DH, Dysiherbaine], for which the ED50 seizure activity with mice is on record as 13 pmol/mouse.

For `N[C@@H](C[C@]1(C(=O)O)C[C@H]2OC[C@@H](O)[C@@H](O)[C@H]2O1)C(=O)O` [neodysiherbaine, Neodysiherbaine], the ED50 seizure activity with mice was 16 pmol/mouse. Also, the Ki at GluR5-2a was 7.7 nM; on GluR6, 33 nM; at GluR5, 7.7 nM. Besides, the “Ki KA2” value on KA2 [1] was 600 nM. Also, on KA2 [2], the “KA2 binding affinity (displacement of [3H]kainate)” value was 0.6 µM.
